# From PMC4533898 (Biochemistry, 2015)
# Legend:
# [1] = target: Progesterone receptor membrane component 1 (hPGRMC1) (Homo sapiens, UniProt O00264, Y164F); test: UV-vis spectroscopy; type: binding
# [2] = target: Progesterone receptor membrane component 1 (hPGRMC1) (Homo sapiens, UniProt O00264, Y164H); test: UV-vis; type: binding
# Sequence of Progesterone receptor membrane component 1 (hPGRMC1) (Homo sapiens, UniProt O00264, Y164H) (O00264 71-195 Y164H): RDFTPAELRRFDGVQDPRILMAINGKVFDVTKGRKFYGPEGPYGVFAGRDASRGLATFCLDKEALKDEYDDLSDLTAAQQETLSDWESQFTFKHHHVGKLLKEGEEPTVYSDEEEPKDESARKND
# Sequence of Progesterone receptor membrane component 1 (hPGRMC1) (Homo sapiens, UniProt O00264, Y164F) (O00264 71-195 Y164F): as the sequence (O00264 71-195 Y164H) above, with H94F counted along it
substance,measurement,setting,value
heme,% of WT heme binding,[1],~ 15 % of WT heme binding
same,% of WT heme binding,[2],~ 90 % of WT heme binding
